Where two headings read alike, the source gives them in different places.
Assay: Ex vivo biodistribution in mice with MM1S tumor xenografts
Conditions: both sexes, NSG, mouse; for tissue uptake at 5 min: 5 min p.i.; for tissue uptake at 0.5 h: 30 min p.i.; for tissue uptake at 1 h: 60 min p.i.; for tissue uptake at 1.5 h: 90 min p.i.; for tissue uptake at 2 h: 120 min p.i.
Procedure: Animal studies were performed under Johns Hopkins University Animal Care and Use Committee (ACUC‐approved protocol (Principal investigator: Sridhar Nimmagadda, Ph.D. and Protocol number M021M175). Male and female NSG mice (5‐6 weeks old) were used to establish xenografts by administering 3 million cells (50% Corning Matrigel) subcutaneously to form various tumor models within 3–4 weeks. Imaging or biodistribution studies (n = 3–5) were conducted on mice with tumor volumes of 100–200 mm^3. Disseminated tumor models were developed by injecting 4–5 million cells in saline intravenously for MOLP8 and MM1S‐Luc models (n = 4–5). Luciferase expressing MM1S cell line (MM1S‐Luc) was used to monitor cancer cell dissemination in the body. Tumor establishment was confirmed by injecting D‐Luciferin intraperitoneally (150 mg kg^−1) and imaged mice after 10 min in IVIS bioluminescence imaging system. Bone marrow tumors were ready for imaging after 25–30 d of implantation.
Mice with 100–200 mm^3 tumor volume were used for ex vivo biodistribution studies. For radiotracer pharmacokinetics studies, mice with MOLP8 tumor xenografts received ≈80 µCi (2.96 MBq) [^68Ga]Ga‐AJ206 and were sacrificed at pre‐determined time points (5, 30, 60 and 120 min). Similarly, for dosimetry study, mice with MM1S tumor xenografts received ≈80 µCi (2.96 MBq) of [^68Ga]Ga‐AJ206 and were sacrificed at pre‐determined time points (5, 30, 60, 90 and 120 min). All other mice were injected with ≈50µCi (1.85 MBq) [^68Ga]Ga‐AJ206 and were sacrificed at 60 min. The selected tissues were collected, weighed, counted, and their %ID g^−1 values calculated for biodistribution analysis. The tissues included blood, muscle, tumor, thymus, heart, lung, liver, pancreas, stomach, small intestine, large intestine, spleen, adrenals, kidney, bladder, femur, and brain.

[1] = adrenals, 80 µCi, MM1S xenograft mice, read-out: uptake in adrenals
[2] = bladder, 80 µCi, MM1S xenograft mice, read-out: uptake in bladder
[3] = blood, 80 µCi, total radioactivity, MM1S xenograft mice, read-out: uptake in blood
[4] = brain, 80 µCi, MM1S xenograft mice, read-out: uptake in brain
[5] = femur, 80 µCi, MM1S xenograft mice, read-out: uptake in femur
[6] = heart, 80 µCi, total radioactivity, MM1S xenograft mice, read-out: uptake in heart
[7] = kidney, 80 µCi, MM1S xenograft mice, read-out: uptake in kidney
[8] = large intestine (with contents), 80 µCi, MM1S xenograft mice, read-out: uptake in large intestine (with contents)
[9] = liver, 80 µCi, total radioactivity, MM1S xenograft mice, read-out: uptake in liver
[10] = lung, 80 µCi, total radioactivity, MM1S xenograft mice, read-out: uptake in lung
[11] = muscle, 80 µCi, MM1S xenograft mice, read-out: uptake in muscle

For CC[C@H](C)[C@@H]1NC(=O)[C@@H]2CCCN2C(=O)[C@H](Cc2ccccc2)NC(=O)[C@H](CC(=O)O)NC(=O)[C@H](C)NC(=O)[C@@H]2CSCc3cc(cc(c3)CSC[C@H](NC(=O)[C@H](C)NC(=O)CCOCCOCCOCCNC(=O)CN3CCN(CC(=O)O)CCN(CC(=O)O)CC3)C(=O)N[C@@H](C(C)C)C(=O)N3CCC[C@H]3C(=O)N2)CSC[C@@H](C(N)=O)NC(=O)[C@H](Cc2ccc(O)cc2)NC(=O)[C@H](Cc2c[nH]c3ccccc23)NC1=O [[^68Ga]Ga‐AJ206, metal not drawn], the tissue uptake at 5 min [1] was 5.07 ± 0.11 %ID/g, the tissue uptake at 0.5 h [1] was 2.08 ± 0.38 %ID/g and the tissue uptake at 1 h [1] was 0.59 ± 0.06 %ID/g. For the same molecule, the tissue uptake at 1.5 h [1] was 0.44 ± 0.1 %ID/g, the tissue uptake at 2 h [1] was 0.57 ± 0.14 %ID/g and the tissue uptake at 5 min [2] was 9.35 ± 1.87 %ID/g. It also gave a tissue uptake at 0.5 h [2] of 4.51 ± 0.93 %ID/g, a tissue uptake at 1 h [2] of 0.75 ± 0.08 %ID/g and a tissue uptake at 1.5 h [2] of 1.23 ± 0.1 %ID/g. For the same molecule, the tissue uptake at 2 h [2] was 0.9 ± 0.37 %ID/g, the tissue uptake at 1 h (blood, 2 mg/kg, MM1S xenograft mice with blocking dose (2 mg kg^−1 AJ206), read-out: uptake in blood) was 2.17 ± 1.17 %ID/g and the tissue uptake at 2 h (blood, 80 µCi, MM1S xenograft mice, read-out: uptake in blood) was 0.33 ± 0.07 %ID/g. The tissue uptake at 5 min [3] was 20.7 ± 1.68 %ID/g, the tissue uptake at 0.5 h [3] was 2.95 ± 0.37 %ID/g and the tissue uptake at 1 h [3] was 0.75 ± 0.29 %ID/g. It also gave a tissue uptake at 1.5 h [3] of 0.75 ± 0.24 %ID/g, a tissue uptake at 5 min [4] of 0.44 ± 0.07 %ID/g and a tissue uptake at 0.5 h [4] of 0.21 ± 0.12 %ID/g. For the same molecule, the tissue uptake at 1 h [4] was 0.06 ± 0.03 %ID/g, the tissue uptake at 1.5 h [4] was 0.03 ± 0.01 %ID/g and the tissue uptake at 2 h [4] was 0.02 ± 0.01 %ID/g. The tissue uptake at 1 h (femur, 2 mg/kg, MM1S xenograft mice with blocking dose (2 mg kg^−1 AJ206), read-out: uptake in femur) was 0.25 ± 0.09 %ID/g, the tissue uptake at 5 min [5] was 3.37 ± 0.31 %ID/g and the tissue uptake at 0.5 h [5] was 0.86 ± 0.06 %ID/g. It also gave a tissue uptake at 1 h [5] of 0.33 ± 0.12 %ID/g, a tissue uptake at 1.5 h [5] of 0.28 ± 0.05 %ID/g and a tissue uptake at 2 h [5] of 0.09 ± 0.02 %ID/g. For the same molecule, the tissue uptake at 1 h (heart, 2 mg/kg, MM1S xenograft mice with blocking dose (2 mg kg^−1 AJ206), read-out: uptake in heart) was 0.33 ± 0.03 %ID/g, the tissue uptake at 5 min [6] was 6.38 ± 0.42 %ID/g and the tissue uptake at 0.5 h [6] was 1 ± 0.15 %ID/g. The tissue uptake at 1 h [6] was 0.29 ± 0.03 %ID/g, the tissue uptake at 1.5 h [6] was 0.35 ± 0.08 %ID/g and the tissue uptake at 2 h [6] was 0.16 ± 0.01 %ID/g. The tissue uptake at 1 h (kidney, 2 mg/kg, MM1S xenograft mice with blocking dose (2 mg kg^−1 AJ206), read-out: uptake in kidney) was 15.9 ± 1.12 %ID/g, the tissue uptake at 5 min [7] was 31.5 ± 4.15 %ID/g and the tissue uptake at 0.5 h [7] was 21.6 ± 2.02 %ID/g. It also gave a tissue uptake at 1 h [7] of 14.1 ± 0.57 %ID/g, a tissue uptake at 1.5 h [7] of 13.2 ± 1.59 %ID/g and a tissue uptake at 2 h [7] of 9.39 ± 1.5 %ID/g. The tissue uptake at 5 min [8] was 3.11 ± 0.38 %ID/g, the tissue uptake at 0.5 h [8] was 0.75 ± 0.04 %ID/g and the tissue uptake at 1 h [8] was 0.29 ± 0.03 %ID/g. It also gave a tissue uptake at 1.5 h [8] of 0.27 ± 0.05 %ID/g, a tissue uptake at 2 h [8] of 0.27 ± 0.19 %ID/g and a tissue uptake at 1 h (liver, 2 mg/kg, MM1S xenograft mice with blocking dose (2 mg kg^−1 AJ206), read-out: uptake in liver) of 1.45 ± 0.26 %ID/g. For the same molecule, the tissue uptake at 5 min [9] was 30.3 ± 3.51 %ID/g, the tissue uptake at 0.5 h [9] was 3.64 ± 0.31 %ID/g and the tissue uptake at 1 h [9] was 1.38 ± 0.04 %ID/g. It also gave a tissue uptake at 1.5 h [9] of 1.16 ± 0.08 %ID/g, a tissue uptake at 2 h [9] of 0.73 ± 0.1 %ID/g and a tissue uptake at 1 h (lung, 2 mg/kg, MM1S xenograft mice with blocking dose (2 mg kg^−1 AJ206), read-out: uptake in lung) of 0.94 ± 0.09 %ID/g. The tissue uptake at 5 min [10] was 10.2 ± 4.52 %ID/g, the tissue uptake at 0.5 h [10] was 3.43 ± 0.5 %ID/g and the tissue uptake at 1 h [10] was 0.67 ± 0.07 %ID/g. For the same molecule, the tissue uptake at 1.5 h [10] was 0.95 ± 0.18 %ID/g, the tissue uptake at 2 h [10] was 0.4 ± 0.04 %ID/g and the tissue uptake at 1 h (muscle, 2 mg/kg, MM1S xenograft mice with blocking dose (2 mg kg^−1 AJ206), read-out: uptake in muscle) was 0.21 ± 0.07 %ID/g. For the same molecule, the tissue uptake at 5 min [11] was 1.96 ± 0.28 %ID/g and the tissue uptake at 0.5 h [11] was 0.55 ± 0.09 %ID/g.

Source: article PMC11040352, “CD38‐Specific Gallium‐68 Labeled Peptide Radiotracer Enables Pharmacodynamic Monitoring in Multiple Myeloma with PET” (Advanced Science, 2024)
